Where a name gives a salt, the structure may show the parent alone.
What was measured:
SB.mhdgc-1 = assay: AC50 for growth inhibition (viability) (log10 M); higher = less potent; details: SB.mhdgc-1 (hereditary c.1380delA CDH1 gastric cancer)
How it was run: (§1)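 Compound dissolved in DMSO was transferred by pintool, 23 nL per 1536 well, onto 500 hereditary or sporadic patient-derived gastric cancer cells in 5 μL medium. The series spanned 11 threefold dilutions, the highest at a final 46 μM. At 48 h, a 30 min room-temperature incubation with CellTiter-Glo preceded luminescence measurement on a ViewLux. The log half-maximal activity concentration was fitted by a four-parameter model to DMSO-normalised viability, with only high-quality curve classes accepted.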

SB.msgc-1 = assay: as above; details: SB.msgc-1 (sporadic gastric cancer)
How it was run: as §1

SMILES | AC50 for growth inhibition (log10 M) (SB.mhdgc-1) | AC50 for growth inhibition (log10 M) (SB.msgc-1)
CC1=C(/C=C/C(C)=C/C=C/C(C)=C\C(=O)O)C(C)(C)CCC1 [Isotretinoin] | -4.63 | -5.33
COc1cc(C(=O)NC2CCN(C)CC2)ccc1Nc1ncc2c(n1)N(C1CCCC1)CCC(=O)N2C(C)C | -5.13 | -4.73
O=C(Nc1ccc([N+](=O)[O-])cc1Cl)c1cc(Cl)ccc1O [Niclosamide] | -5.88 | -5.38
Cc1cnc(Nc2ccc(N3CCN(C)CC3)cc2)nc1Nc1cccc([S+](=O)([O-])NC(C)(C)C)c1 | -5.33 | -4.98
COc1cc2c(cc1OC)[C@@H]1Cc3ccc(OC)c(OC)c3CN1CC2 [Rotundine] | -5.28 | -4.73
COC1=CC2=C(C=C1CC3=C(F)C(=CC=C3)Cl)C(=O)\C(=C/N2[C@H](CO)C(C)C)C(O)=O [Elvitegravir] | -4.78 | -4.68
C[C@H]1O[C@H](C[C@H](O)[C@@H]1O)O[C@H]2[C@@H](O)C[C@@H](O[C@@H]2C)O[C@H]3[C@@H](O)C[C@@H](O[C@@H]3C)O[C@H]4CC[C@@]5(C)[C@H](CC[C@@H]6[C@@H]5C[C@@H](O)[C@]7(C)[C@H](CC[C@]67O)C/8=C/C(=O)OC8)C4 [Digoxin] | -6.62 | -6.62
CCNC(=O)Nc1ccc(-c2nc3c(c(N4CCOC[C@@H]4C)n2)CCN(C2COC2)C3)cc1 [GDC-0349] | -5.28 | -4.83
C[N]1C=NC=C1[C@@](N)(C2=CC=C(Cl)C=C2)C3=CC=C4N(C)C(=O)\C=C(\C5=CC=CC(=C5)Cl)C4=C3 [Tipifarnib] | -4.83 | -4.83
CO[C@H]1/C=C/O[C@@]2(C)Oc3c(C)c(O)c4c(O)c(c(/C=N\N5CCN(C6CCCC6)CC5)c(O)c4c3C2=O)NC(=O)/C(C)=C\C=C\[C@H](C)[C@H](O)[C@@H](C)[C@@H](O)[C@@H](C)[C@H](OC(C)=O)[C@@H]1C [Rifapentine] | -7.38 | -6.33
CC(C)(C)c1cc(C=C(C#N)C#N)cc(Br)c1O [AG-1024] | -5.03 | -5.43
NC1(C(=O)N[C@@H](CCO)c2ccc(Cl)cc2)CCN(c2ncnc3[nH]ccc23)CC1 [AZD-5363] | -5.23 | -5.08
Nc1nnc(-c2cccc(Cl)c2Cl)c(N)n1 [Lamotrigine] | -4.53 | -4.63
O=C(c1ccccc1)c1ccc2n1CCC2C(=O)O (configuration not stated) [Ketorolac] | -5.98 | -5.78
O=C(c1ccc(Nc2nccc(-c3cc4ccccc4s3)n2)cc1)N1CCC(N2CCCC2)CC1 [IKK16] | -5.08 | -4.88
O=C(CCCCCCC(=O)Nc1ccccc1)NO [Vorinostat] | -5.63 | -5.58
O=C(Nc1ccncc1)C(=O)c1cn(Cc2ccc(Cl)cc2)c2ccccc12 [Indibulin] | -6.28 | -5.68
CNC1CCCN(c2c(F)cc3c(=O)c(C(=O)O)cn(C4CC4)c3c2OC)C1 (configuration not stated) [Balofloxacin] | -5.63 | -4.83
CCCCC[C@H](O)/C=C/[C@H]1[C@H](O)CC(=O)[C@@H]1CCCCCCC(=O)O [Alprostadil] | -5.13 | -4.68
NC/1=N/C(=O)C2=C(N1)[N](C=N2)[C@@H]3C[C@H](O)[C@@H](CO)C3=C [Entecavir] | -4.78 | -5.28
O=C/1NC(=O)C(=C1C2=CN=C3C=CC=C[N]23)/C4=C[N]5CCN(CC6=C5C4=CC=C6)C(=O)N7CCOCC7 [GSK3 Inhibitor] | -5.93 | -4.63
COc1cc(OC)c(/C=C/[S+](=O)([O-])Cc2ccc(OC)c(NCC(=O)[O][Na])c2)c(OC)c1 | -6.03 | -6.33
C=CC(=O)Nc1cc2c(Nc3ccc(F)c(Cl)c3)ncnc2cc1C#CC(C)(C)N1CCN(C)CC1 [AV-412] | -5.53 | -5.08
O=C(CCCCCCC(=O)Nc1ccc([C@H]2O[C@@H](CSc3nc(-c4ccccc4)c(-c4ccccc4)o3)C[C@@H](c3ccc(CO)cc3)O2)cc1)NO [Tubacin] | -4.73 | -4.58
C=C1C(=O)O[C@@H]2[C@H]3O[C@]3(C)CC/C=C(\C)CC[C@@H]12 [Parthenolide] | -5.18 | -4.83
O=[N+]([O-])c1cnc(Sc2nnc(O)n2-c2ccc3c(c2)OCCO3)s1 [BI-78D3] | -5.43 | -4.83

SMILES | AC50 for growth inhibition (log10 M) (SB.mhdgc-1) | AC50 for growth inhibition (log10 M) (SB.msgc-1)
CC(=O)O[C@@]12CO[C@@H]1C[C@H](O)[C@]3(C)[C@@H]2[C@H](OC(=O)C4=CC=CC=C4)[C@]5(O)C[C@H](O)/C(=C(/[C@@H](O)C3=O)C5(C)C)C [10-Deacetylbaccatin] | -5.83 | -5.38
O=C1NC(=O)[C@@H](c2cn3c4c(cccc24)CCC3)[C@@H]1c1c[nH]c2ccccc12 [Tivantinib] | -6.48 | -6.23
C[C@]\1(CCS\C(=N1)N)C2=CC(=C(F)C=C2F)C3=CN=CN=C3 | -4.73 | -4.63
OC1=C(O)C2=C(\C=C/C(=O)O2)C=C1 [Daphnetin] | -5.78 | -4.78
N=c1c2c(-c3ccccc3)c(-c3ccccc3)n(Cc3ccccc3)c2ncn1[C@H]1CC[C@H](O)CC1 | -4.58 | -4.73
OC[C@H]1O[C@@H](Oc2ccc(O)cc2)[C@H](O)[C@@H](O)[C@@H]1O [Arbutin] | -4.93 | -4.78
O=C(Nc1c[nH]nc1-c1nc2cc(CN3CCOCC3)ccc2[nH]1)NC1CC1 [AT-9283] | -6.18 | -5.38
Nc1ccc(C(=O)c2cc3c(ccc4ccccc43)[nH]2)cc1 [IPFK2] | -4.73 | -5.33
CC[C@@]1(O)C(=O)OCC/2=C1/C=C3\N(CC4=CC5=CC(=CC=C5N=C34)O)C2=O [10-hydroxycamptothecin] | -7.83 | -7.33
C[S+](=O)([O-])N1CCN(Cc2cc3nc(-c4cccc5[nH]ncc45)nc(N4CCOCC4)c3s2)CC1 [GDC-0941] | -7.23 | -6.13
COC1=CC=C(C=N1)C/2=C/C3=C(C)N=C(N)N=C3N(C4CCC(CC4)OCCO)C2=O (configuration not stated) | -7.88 | -7.18
CO[C@@H]1[C@H](N(C)C(=O)c2ccccc2)C[C@H]2O[C@]1(C)n1c3ccccc3c3c4c(c5c6ccccc6n2c5c31)C(=O)NC4 [Midostaurin] | -5.63 | -5.38
Cc1cc(CN2CCN(c3c(Br)cnc4[nH]c(-c5ccc(N6CCN(C)CC6)cc5)nc34)CC2)no1 | -4.63 | -4.68
NCC/1=C/NC(=S)N1[C@H]2CCC3=C(F)C=C(F)C=C3C2 [Nepicastat hydrochloride] | -4.98 | -5.03
Nc1nc(F)nc2c1ncn2[C@@H]1O[C@H](CO)[C@@H](O)[C@H]1O [2-Fluoroadenosine] | -6.23 | -6.23
CC1(C)CC(=O)c2c(C(F)(F)F)nn(-c3ccc(C(N)=O)c(NC4CCC(O)CC4)c3)c2C1 (configuration not stated) [SNX-2112] | -6.48 | -7.43
N[S+](=O)([O-])c1ccc(Nc2nc(OCC3CCCCC3)c3[nH]cnc3n2)cc1 [NU-6102] | -4.68 | -4.83
FC(F)c1nc2ccccc2n1-c1nc(N2CCOCC2)nc(N2CCOCC2)n1 [ZSTK-474] | -6.48 | -5.98
CN(C)[C@@H](CCOc1cccc2ccccc12)c1ccccc1 [Dapoxetine hydrochloride] | -5.48 | -4.73
C=C1/C(=C\C=C2/CCC[C@]3(C)[C@@H]([C@H](C)CCCC(C)(C)O)CC[C@@H]23)C[C@@H](O)C[C@@H]1O [Calcitriol] | -6.53 | -5.63
C[N]1C=C(C2=CC=CC=C12)\C3=C(\C(=O)NC3=O)C4=C[N](C5CCN(CC5)CC6=NC=CC=C6)C7=C4C=CC=C7 [Enzastaurin] | -4.98 | -4.98
CC(C)(C(=O)NCC(F)(F)C(F)(F)F)C(=O)N[C@@H]1C(=O)Nc2ccccc2-c2ccccc21 | -4.83 | -5.23
Cc1ccc(NC(=O)Nc2cc(C(F)(F)F)ccc2F)cc1Nc1ccc2c(c1)NC(=O)/C2=C\c1ccc[nH]1 [GNF-5837] | -4.83 | -4.73
C[C@]12CC[C@@H]3c4ccc(O)cc4CC[C@H]3[C@@H]1CC[C@@H]2O [Estradiol] | -5.28 | -4.93
Cc1cc(C(=O)N2CCN(c3cccc(Cl)c3)CC2)n(-c2ccccc2)n1 [XRP-44X] | -6.38 | -5.48

— the supplement of paper PMC5412046
